According to patent US12303509B2, “Compounds for the treatment of BRAF-associated diseases and disorders” (Pfizer Inc., priority 2020, dated 2025):
Counter-ions that a name gives are not always drawn.

What was measured:
[1] = molecular target: full-length FLAG-tagged B-Raf(V600E) (Homo sapiens (Human), UniProt P15056, V600E); assay: BRAF V600E enzyme assay (TR-FRET competitive displacement); type: binding; details: averaged IC50; TR-FRET tracer displacement, 60 min
Method in brief: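 Displacement of 50 nM Tracer 1710 from 5 nM full-length N-terminally FLAG-tagged B-Raf(V600E), detected by TR-FRET with 0.5 nM Eu anti-FLAG antibody, in 25 mM HEPES pH 7.4, 10 mM MgCl2, 2% DMSO; 60 min at ~22 °C. Compounds 11-point, 3-fold from 10 μM; IC50 from 4-parameter fit at 50 POC.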

[2] = MDR1 LLC-PK1 and BCRP MDCKII permeability assay: permeability coefficient (Papp); type: in vitro ADME
Text: (§1) Final organic concentration in the assay was 1%.

A375 cells = assay: Cellular phospho-ERK inhibition assay in A375 cells; type: cell-based; details: Homo sapiens, A-375, A375 cells (head prints A357), 2 hours treatment, read-out: A357 cell IC50
Method in brief: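 A375 (DMEM) or H1755 (RPMI) cells in 10% FBS treated 2 h at 37 °C with 9-point series, 66 pM–10 μM, 0.25% DMSO. Phospho-ERK1/2 (Thr202/Tyr204) measured by In Cell Western, normalised to GAPDH and to DMSO and 10 μM binimetinib controls; IC50 by 4-parameter fit.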

H1755 cells = assay: Cellular phospho-ERK inhibition assay in H1755 cells; type: cell-based; details: Homo sapiens, NCI-H1755, 2 hours treatment, read-out: H1755 Cell IC50
Experimental: A375 and H1755 cells were obtained from the American Type Culture Collection (ATCC, Rockville, MD). A375 cells were maintained in DMEM growth medium containing 10% FBS. H1755 cells were maintained in RPMI growth medium containing 10% FBS.
Cells were harvested according to standard protocols, counted and plated onto flat-bottom, 96-well tissue culture plates (Costar #3599) at 2.5×10^4 cells/well for A375 cells and 1.5×10^4 cells/well for H1755 cells in 100 μL/well of growth medium containing 10% FBS. After an overnight incubation at 37° C. with 5% CO2 cells were treated for 2 hours at 37° C., 5% CO2 with compounds prepared as a 9-point, 1:3.33 fold dilution series with final compound concentrations ranging from 66 pM-10 μM and a constant DMSO concentration of 0.25%. Control wells contained either 0.25% DMSO alone (uninhibited control) or 10 μM binimetinib (complete inhibition control). The levels of phosphorylated ERK are determined using an In Cell Western protocol: following compound incubation, growth medium was discarded, and cells were fixed with 0.4% formaldehyde in PBS for 20 minutes at room temperature. Cells were permeabilized with 100% methanol for 10 minutes at room temperature. Plates were washed with PBS containing 0.05% Tween-20 and blocked for 1 hour at room temperature with LI-COR Blocking Buffer (LI-COR Biosciences; Cat #927-40000). Plates were then incubated for 2 hours at room temperature with 50 μL of a 1:400 dilution of anti-phospho-ERK1/2 (Thr202/Tyr204) (Cell Signaling; Cat #9101) and a 1:1000 dilution of anti-GAPDH (Millipore; Cat #MAB374) in LI-COR blocking buffer containing 0.05% Tween-20. Plates were washed with PBS containing […] Tween-20 then incubated at room temperature for 1 hour with 50 μL of a 1:1000 dilution of anti-rabbit AlexaFluor 680 (Life Technologies; Cat #A21109) and a 1:1000 dilution of anti-mouse IRDye 800CW (LI-COR; Cat #926-32210) in LI-COR blocking buffer containing 0.05% Tween-20. Plates were analyzed by reading on an Odyssey CLx infrared scanner. For each well, the phospho-ERK signal was normalized to the GAPDH signal and converted to POC using the following equation:
[formula] • Where: • Xmax Average Uninhibited Controls • Xmin Average Complete Inhibition Controls IC50 values were then calculated using a 4-parameter fit in XLfit software and are provided in Table A1.

P-gp (MDR1) = P-gp (MDR1) (Homo sapiens (Human), UniProt P08183); assay: MDR1 LLC-PK1 permeability assay: efflux ratio; type: in vitro ADME; details: pig
Text: as §1

BCRP = BCRP (Homo sapiens (Human), UniProt Q9UNQ0); assay: BCRP MDCKII permeability assay: efflux ratio; type: in vitro ADME; details: dog
Sequence of BCRP (Q9UNQ0 whole entry): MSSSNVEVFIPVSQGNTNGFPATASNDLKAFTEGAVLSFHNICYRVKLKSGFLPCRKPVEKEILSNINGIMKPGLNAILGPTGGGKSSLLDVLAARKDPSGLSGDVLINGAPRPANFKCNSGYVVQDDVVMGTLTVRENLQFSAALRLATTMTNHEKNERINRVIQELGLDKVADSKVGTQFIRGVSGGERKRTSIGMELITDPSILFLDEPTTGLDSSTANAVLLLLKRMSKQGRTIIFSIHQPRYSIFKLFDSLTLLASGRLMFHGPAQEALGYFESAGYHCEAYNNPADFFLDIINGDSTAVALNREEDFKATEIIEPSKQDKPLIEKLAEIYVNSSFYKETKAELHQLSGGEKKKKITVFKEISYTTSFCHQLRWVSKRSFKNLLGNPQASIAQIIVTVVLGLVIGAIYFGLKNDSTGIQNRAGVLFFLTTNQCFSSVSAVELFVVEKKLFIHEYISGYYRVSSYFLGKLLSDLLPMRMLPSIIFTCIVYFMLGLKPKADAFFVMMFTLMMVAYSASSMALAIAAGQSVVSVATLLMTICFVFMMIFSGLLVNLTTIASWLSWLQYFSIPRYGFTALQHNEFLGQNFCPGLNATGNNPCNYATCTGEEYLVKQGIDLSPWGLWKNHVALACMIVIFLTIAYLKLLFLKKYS

Sequence of full-length FLAG-tagged B-Raf(V600E) (P15056 whole entry V600E): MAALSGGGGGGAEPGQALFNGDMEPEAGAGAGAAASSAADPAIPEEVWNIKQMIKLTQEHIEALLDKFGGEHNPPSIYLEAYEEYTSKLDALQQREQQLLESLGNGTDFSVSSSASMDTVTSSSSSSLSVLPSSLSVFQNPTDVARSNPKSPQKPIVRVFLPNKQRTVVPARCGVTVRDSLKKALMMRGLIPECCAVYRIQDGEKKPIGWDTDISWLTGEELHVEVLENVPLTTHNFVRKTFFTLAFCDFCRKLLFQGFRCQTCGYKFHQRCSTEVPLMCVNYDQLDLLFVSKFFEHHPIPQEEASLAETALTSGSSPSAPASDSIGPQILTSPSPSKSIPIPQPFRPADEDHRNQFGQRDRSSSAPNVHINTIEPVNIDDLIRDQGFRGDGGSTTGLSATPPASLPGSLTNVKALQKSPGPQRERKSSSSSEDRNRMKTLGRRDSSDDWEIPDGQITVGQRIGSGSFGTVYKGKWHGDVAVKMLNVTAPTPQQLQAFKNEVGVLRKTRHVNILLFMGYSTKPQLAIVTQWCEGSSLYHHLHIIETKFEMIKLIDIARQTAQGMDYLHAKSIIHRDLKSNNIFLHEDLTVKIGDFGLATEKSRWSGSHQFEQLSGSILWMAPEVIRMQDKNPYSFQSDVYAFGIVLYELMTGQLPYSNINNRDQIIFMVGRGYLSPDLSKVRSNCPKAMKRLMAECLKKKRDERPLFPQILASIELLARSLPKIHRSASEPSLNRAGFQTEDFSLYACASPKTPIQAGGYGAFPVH
Sequence of P-gp (MDR1) (P08183 whole entry, species assumed): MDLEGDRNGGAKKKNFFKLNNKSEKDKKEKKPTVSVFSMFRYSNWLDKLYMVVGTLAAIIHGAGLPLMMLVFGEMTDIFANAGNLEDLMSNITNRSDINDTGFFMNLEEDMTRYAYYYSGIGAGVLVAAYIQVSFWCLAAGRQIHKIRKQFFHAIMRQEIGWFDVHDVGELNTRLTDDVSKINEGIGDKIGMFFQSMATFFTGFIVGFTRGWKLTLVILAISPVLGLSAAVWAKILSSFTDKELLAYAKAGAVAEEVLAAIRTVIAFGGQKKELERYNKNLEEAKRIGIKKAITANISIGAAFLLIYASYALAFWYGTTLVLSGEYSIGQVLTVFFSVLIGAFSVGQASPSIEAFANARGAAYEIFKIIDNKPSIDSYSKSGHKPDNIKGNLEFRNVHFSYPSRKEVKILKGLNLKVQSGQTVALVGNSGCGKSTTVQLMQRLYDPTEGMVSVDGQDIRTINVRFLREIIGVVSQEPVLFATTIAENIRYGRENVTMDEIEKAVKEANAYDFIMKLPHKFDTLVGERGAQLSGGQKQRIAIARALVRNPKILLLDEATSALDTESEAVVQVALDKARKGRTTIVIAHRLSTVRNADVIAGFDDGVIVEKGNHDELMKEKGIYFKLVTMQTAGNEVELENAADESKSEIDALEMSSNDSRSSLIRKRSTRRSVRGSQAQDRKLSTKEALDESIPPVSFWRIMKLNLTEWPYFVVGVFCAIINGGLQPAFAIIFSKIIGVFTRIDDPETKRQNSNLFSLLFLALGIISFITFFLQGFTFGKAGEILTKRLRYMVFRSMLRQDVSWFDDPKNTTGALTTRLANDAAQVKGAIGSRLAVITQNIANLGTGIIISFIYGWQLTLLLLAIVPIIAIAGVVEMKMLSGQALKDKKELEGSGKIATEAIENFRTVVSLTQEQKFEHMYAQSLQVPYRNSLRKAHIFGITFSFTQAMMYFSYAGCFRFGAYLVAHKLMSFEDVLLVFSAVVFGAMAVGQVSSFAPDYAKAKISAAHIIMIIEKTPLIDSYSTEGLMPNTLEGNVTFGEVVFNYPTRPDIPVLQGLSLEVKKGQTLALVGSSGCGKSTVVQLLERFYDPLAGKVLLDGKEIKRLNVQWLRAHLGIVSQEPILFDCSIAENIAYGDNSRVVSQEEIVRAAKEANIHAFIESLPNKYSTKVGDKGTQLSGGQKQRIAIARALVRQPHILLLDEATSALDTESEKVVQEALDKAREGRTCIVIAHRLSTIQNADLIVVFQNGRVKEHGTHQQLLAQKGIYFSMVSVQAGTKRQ

SMILES | IC50 [1] | Papp at 2 h, 1 µM [2] | IC50 (A375 cells) | IC50 (H1755 cells) | efflux ratio at 2 h, 1 µM (P-gp (MDR1)) | efflux ratio at 2 h, 1 µM (BCRP)
CO[C@H]1CN(S(=O)(=O)Nc2ccc(F)c(Nc3ccc4ncn(C)c(=O)c4c3Br)c2Cl)C[C@H]1F (relative stereo) [Example 16, cis-N-(3-((5-bromo-3-methyl-4-oxo-3,4-dihydroquinazolin-6-yl)amino)-2-chloro-4-fluorophenyl)-3-fluoro-4-methoxypyrrolidine-1-sulfonamide trifluoroacetate] | 6 nM | 29 ×10⁻⁶ cm/s | 7 nM | 43 nM | 5.9 | 4.5
CO[C@@H]1CCN(S(=O)(=O)Nc2ccc(F)c(Nc3ccc4ncn(C)c(=O)c4c3C)c2Cl)C1 [Example 1, (R)-N-(2-chloro-3-((3,5-dimethyl-4-oxo-3,4-dihydroquinazolin-6-yl)amino)-4-fluorophenyl)-3-methoxypyrrolidine-1-sulfonamide] | 60 nM | 31 ×10⁻⁶ cm/s | 32 nM | 103 nM | 1.7 | 1.4
CCN(C)S(=O)(=O)Nc1ccc(F)c(Nc2ccc3ncn(C)c(=O)c3c2Cl)c1Cl [Example 2] | 36 nM | 31 ×10⁻⁶ cm/s | 15 nM | 58 nM | 1.2 | 1
CN(C)S(=O)(=O)Nc1ccc(F)c(Nc2ccc3ncn(C)c(=O)c3c2Cl)c1Cl [Example 3, N-(2-chloro-3-((5-chloro-3-methyl-4-oxo-3,4-dihydroquinazolin-6-yl)amino)-4-fluorophenyl)-(N,N-dimethyl)-sulfamide] | 30 nM | 33 ×10⁻⁶ cm/s | 16 nM | 61 nM | 1.3 | 1.5
CCN(C)S(=O)(=O)Nc1ccc(F)c(Nc2ccc3ncn(C)c(=O)c3c2F)c1Cl [Example 4, N-(2-chloro-4-fluoro-3-((5-fluoro-3-methyl-4-oxo-3,4-dihydroquinazolin-6-yl)amino)phenyl)-(N-ethyl-N-methyl)-sulfamide] | 32 nM | 27 ×10⁻⁶ cm/s | 19 nM | 80 nM | 1.6 | 2.1
Cn1cnc2ccc(Nc3cc(Cl)cc(NS(=O)(=O)N4CC[C@@H](F)C4)c3F)c(Cl)c2c1=O [Example 56, (R)-N-(5-chloro-3-((5-chloro-3-methyl-4-oxo-3,4-dihydroquinazolin-6-yl)amino)-2-fluorophenyl)-3-fluoropyrrolidine-1-sulfonamide trifluoroacetate] | 1 nM |  | 4 nM | 23 nM | 2.3 | 2.8
Cn1cnc2ccc(Oc3c(F)ccc(NS(=O)(=O)N4CC(F)C4)c3Cl)c(Cl)c2c1=O [Example 120, N-(2-chloro-3-((5-chloro-3-methyl-4-oxo-3,4-dihydroquinazolin-6-yl)oxy)-4-fluorophenyl)-3-fluoroazetidine-1-sulfonamide] | 2 nM | 30 ×10⁻⁶ cm/s | 4 nM | 69 nM | 3.8 | 
Cc1c(Nc2c(F)ccc(NS(=O)(=O)N3CC(C)(F)C3)c2Cl)ccc2ncn(C)c(=O)c12 [Example 155, N-(2-chloro-3-((3,5-dimethyl-4-oxo-3,4-dihydroquinazolin-6-yl)amino)-4-fluorophenyl)-3-fluoro-3-methylazetidine-1-sulfonamide trifluoroacetate] |  | 34 ×10⁻⁶ cm/s | 99 nM | 1770 nM | 1.4 | 1.2

Second part, the compound after the results:

IC50 [1] | Papp at 2 h, 1 µM [2] | IC50 (A375 cells) | IC50 (H1755 cells) | efflux ratio at 2 h, 1 µM (P-gp (MDR1)) | efflux ratio at 2 h, 1 µM (BCRP) | SMILES
6 nM | 26 ×10⁻⁶ cm/s | 2 nM | 16 nM | 6.8 | 13.4 | CO[C@@H]1CN(S(=O)(=O)Nc2ccc(F)c(Nc3ccc4ncn(C)c(=O)c4c3F)c2Cl)C[C@@H]1F (relative stereo) [Example 15, cis-N-(2-chloro-4-fluoro-3-((5-fluoro-3-methyl-4-oxo-3,4-dihydroquinazolin-6-yl)amino)phenyl)-3-fluoro-4-methoxypyrrolidine-1-sulfonamide]
4 nM | 40 ×10⁻⁶ cm/s | 2 nM | 18 nM | 3 | 4.9 | CO[C@@H]1CN(S(=O)(=O)Nc2ccc(F)c(Nc3ccc4ncn(C)c(=O)c4c3Cl)c2Cl)C[C@@H]1F (relative stereo) [Example 18, cis-N-(2-chloro-3-((5-chloro-3-methyl-4-oxo-3,4-dihydroquinazolin-6-yl)amino)-4-fluorophenyl)-3-fluoro-4-methoxypyrrolidine-1-sulfonamide]
14 nM | 27 ×10⁻⁶ cm/s | 4 nM | 20 nM | 3.8 | 3.4 | CO[C@@H]1CCN(S(=O)(=O)Nc2ccc(F)c(Nc3ccc4ncn(C)c(=O)c4c3F)c2Cl)C1 [Example 5, (R)-N-(2-chloro-4-fluoro-3-((5-fluoro-3-methyl-4-oxo-3,4-dihydroquinazolin-6-yl)amino)phenyl)-3-methoxypyrrolidine-1-sulfonamide]
 | 34 ×10⁻⁶ cm/s | 2 nM | 16 nM | 3.8 | 5.1 | Cn1cnc2ccc(Nc3c(F)ccc(NS(=O)(=O)N4CC(F)C4)c3Cl)c(F)c2c1=O [Example 127, N-(2-chloro-4-fluoro-3-((5-fluoro-3-methyl-4-oxo-3,4-dihydroquinazolin-6-yl)amino)phenyl)-3-fluoroazetidine-1-sulfonamide trifluoroacetate]
13 nM | 36 ×10⁻⁶ cm/s | 3 nM | 33 nM | 2.7 |  | COCC1CN(S(=O)(=O)Nc2ccc(F)c(Nc3ccc4ncn(C)c(=O)c4c3Cl)c2Cl)C1 [Example 132, N-(2-chloro-3-((5-chloro-3-methyl-4-oxo-3,4-dihydroquinazolin-6-yl)amino)-4-fluorophenyl)-3-(methoxymethyl)azetidine-1-sulfonamide trifluoroacetate]
5 nM | 33 ×10⁻⁶ cm/s | 1 nM | 11 nM | 5.7 |  | COCC1CN(S(=O)(=O)Nc2ccc(F)c(Nc3ccc4ncn(C)c(=O)c4c3F)c2Cl)C1 [Example 133, N-(2-chloro-4-fluoro-3-((5-fluoro-3-methyl-4-oxo-3,4-dihydroquinazolin-6-yl)amino)phenyl)-3-(methoxymethyl)azetidine-1-sulfonamide trifluoroacetate]
4 nM | 32 ×10⁻⁶ cm/s | 3 nM | 10 nM | 5.3 |  | Cn1cnc2ccc(Nc3c(F)ccc(NS(=O)(=O)N4CC(COC(F)F)C4)c3Cl)c(F)c2c1=O [Example 139, N-(2-chloro-4-fluoro-3-((5-fluoro-3-methyl-4-oxo-3,4-dihydroquinazolin-6-yl)amino)phenyl)-3-((difluoromethoxy)methyl)azetidine-1-sulfonamide trifluoroacetate]
